Measurements from US6645996B1, “Physiologically active substances” (Mercian Corporation and Eisai Co., Ltd., priority 1998, dated 2003).

Experiments:
[1] = tested on: collagen arthritis model; details: Peacock D J., J. Exp. Med. 175, 1135-8, 1992; cited from earlier work
[2] = tested on: angiogenesis induced by human colorectal cancer (WiDr cells); experiment: Antiangiogenic effect in vivo: chamber with WiDr cells transplanted to mouse, 51Cr-labeled erythrocytes; details: 1 mg/kg intraperitoneally once a day for 4 days
Method: Whether angiogenesis induced by human colorectal cancer (WiDr cells) was inhibited by administering VD1207C or not was studied to examine the antiangiogenic effect of VD1207C in vivo.
A chamber in which the WiDr cells were sealed was transplanted to a mouse. Then VD1207C was administered intraperitoneally at each dose of 0.5, 1.0 and 2.0 mg/kg for 4 days once a day. The amount of angiogenesis induced by the tumor was measured quantitatively by measuring the radiao activity in the skin touching with the chamber as the amount of blood by statically injecting erythrocytes labeled by ^51Cr. In FIG. 1, vascular volume generated at each dose of VD1207C is shown.

[3] = Safety of VD1207 analogues, intraperitoneal administration over 4 days; type: in vivo; parameters: key to Blood (WBC) / Blood (PLAT) / Biochemistry (UN) / Biochemistry (GPT) / Weight (liver) / Weight (kidney) / Weight (lung) / Weight (spleen) / Body weight / Blood (RBC): —: “-” indicates no abnormality; “↑” and “↓” indicate an increase and a decrease, respectively; “↑” and “↓” indicate an increase and a decrease, respectively
Method: Each of VD1207B, C, D, E, F and G2 was continuously administered intraperitoneally at each dose of 1 mg/kg and 2 mg/kg over 4 days to examine the safety of VD1207 analogues.

[4] = tested on: E-selectin; experiment: Inhibition of TNFα-induced expression of adhesion molecule E-selectin on endothelial cells; type: cell-based, human; details: HUVEC, TNFα 1 ng/ml, 4 hours; listed as C
Method: (§1) Endothelial cells derived from human umbilical vein (HUVEC) were cultured on a 96-well plate until they were fallen in a confluent state. The culture broth was removed. After 150 μl of a new culture broth was added to each well, 20 μl of a sample solution was added thereto. After 15 minutes, 30 μl of TNFα was added such that the final concentration became 1 ng/ml and it was incubated at 37° C. for 4 hours in a 5% CO2 incubator. Next, the culture broth was removed and the cells were washed twice with a phosphate buffer (PBS). Further, a PBS solution containing 0.025% glutaraldehyde was added and the well was allowed to stand at room temperature for 6 minutes to fix the cells. After the cells were immobilized, they were washed twice with 200 μl of phosphate buffer (PBSA) containing 0.25% BSA. Thereafter 100 μl of a PBSA solution containing 1 μg/ml of mouse anti-human VCAM-1 (R&D systems) or a mouse anti-human E-selectin antibody (R&D systems) was added to each well. The well was allowed to stand at room temperature for 30 minutes and then the cells were again washed. A PBSA solution containing 100 μl of peroxidase-conjugated goat anti-mouse antibody (Cosmo Bio Co., Ltd.) was added to the well. Then the well was allowed to stand at room temperature for 30 minutes and thereafter the cells were washed. In succession, 100 μl of 3,3*,5,5*-tetramethylbenzyidine (TMB) substrate solution was added to develop a color. Next, the coloring was stopped by 100 μl of 1M phosphoric acid to measure the absorbance at 450 nm.

[5] = Solubility (analysis data); type: physicochemical
[6] = tested on: VCAM-1; experiment: Inhibition of TNFα-induced expression of adhesion molecule VCAM-1 on endothelial cells; type: cell-based, human; details: HUVEC, TNFα 1 ng/ml, 4 hours; listed as C
Method: as §1

[7] = tested on: mouse colon cancer (Colon 38-OT-7); experiment: Anti-metastatic effect: hepatic metastasis of mouse colon cancer transplanted to caecum; type: in vivo; details: for Toxic death: n 8
Method: The mouse colon cancer (Colon 38-OT-7) having a high incidence of the hepatic metastasis was transplanted to the mouse caecum. Then VD1207C was administered intraperitoneallyat each dose of 0.5, 1.0 and 2.0 mg/kg once a day since 12 days after the transplantation.

[8] = tested on: Endothelial cells derived from human umbilical vein (HUVEC); experiment: Inhibitory effect of growth of endothelial cells (MTT method); type: cell-based; details: three days, listed as C
Method: Endothelial cells derived from human umbilical vein (HUVEC; manufactured by Sanko Junyaku) incubated in an EGM medium (manufactured by Sanko Junyaku) were adjusted to 1×10^4 cells/ml and each 100 μl were separately placed on a 96-well plate. After incubating overnight, 100 μl of medium containing sample were added thereto followed by incubating for three days. The cell numbers at that time were measured by MTT method. That is, 50 μl of PBS solution containing 0.33% of 3-(4,5-dimethylthiazol-2-yl)-2,5-diphenyltetrazolium bromide (MTT) was added thereto and incubation was continued for further 3-4 hours. After the supernatant liquid of the culture was removed, 100 μl of DMSO was added to dissolve a formazane which was formed in the cells and the absorbance at the wave length of 460 nm was measured by use of plate reader. The IC50 value is defined as a concentration that the absorbance was 50% of that observed when no sample was added.

[9] = tested on: aorta pieces of rat; experiment: Inhibition of capillary formation in rat aorta model (aorta pieces cultured in collagen gel); type: cell-based; details: 7th day from addition of sample, listed as C
Method: In a method of screening the antiangiogenic effect, the degree of inhibition to the formation of lumens observed when an aortic fragment of a rat is cultured in a collagen gel was selected as an indicator (Nicosia R. F., Lab. Invest., 63, 115, 1990). Also, for the purpose of analyzing the mechanism of action of the antiangiogenic effect of the resulting compound, measurements were made concerning the effect of inhibiting the growth of endothelial cells by using endothelial cells derived from the human umbilical cord vein and the effect of inhibiting the expression of an adhesion molecules on endothelial cells.
The antiangiogenic potency was evaluated by the inhibition of capillary formation in rat aorta model in which aorta pieces of rat were cultured in collagen gel. That is, the aorta excised from male rat of Sprague-Dawley strain (8-12 weeks age) was washed with a Hanks' solution so that fat tissues around there were removed minutely. The aorta was incised to prepare pieces of 2 mm square and they were allowed to stand in a 24-well plate holding the endothelial cells upside. Then, 500 μl of neutralized Type I collagen (Cell Matrix Type I-A; manufactured by Nitta Gelatin) were poured over each well and allowed to stand at room temperature for about 20 minutes in a clean bench to solidify the gel. After gelling, 500 μl of MCDB 131 medium (manufactured by Chlorella Kogyo) were added thereto followed by incubating in a Co2 incubator (5% CO2) at 37° C. On the next day, the culture medium was exchanged with 500 μl of MCDB 131 medium containing the sample and the incubation was continued. And, at the stage of the 7th day from the addition of the sample, numbers of capillaries formed around the aorta were counted. The IC50 value of each sample is defined as a concentration that the number of blood capillaries is 50% of that observed when no sample was added.

[10] = 1 mg/kg i.p. 4 days, listed as C
[11] = 2 mg/kg i.p. 4 days, listed as C

**Q.** For `CO[C@@H]1[C@H](OC(=O)NC(=O)CCl)CC[C@]2(CO2)[C@H]1[C@@]1(C)O[C@@H]1CC=C(C)C` [AGM-470], which “Arthritis in a collagen arthritis model” value [1] is on record?
**A.** inhibits arthritis

**Q.** Which results are given for `CCCC(C(=O)c1cc(C(OC)C(C)C)c(O)c(C=O)c1O)C1CC(O)C2(OC2CC)C(O)O1` (single isomer, unassigned) [VD1207 C]?
**A.** Angiogenesis induced by WiDr cells (vascular volume) [2]: inhibited with a significant difference; Weight of each of the liver, kidney and lung (autoptic findings) ([3]; 1 mg/kg and 2 mg/kg i.p. 4 days): increase; Biochemistry (GPT) ([3]; 1 mg/kg i.p. 4 days): —; Biochemistry (UN) ([3]; 1 mg/kg i.p. 4 days): —; Blood (PLAT) ([3]; 1 mg/kg i.p. 4 days): —; Blood (RBC) ([3]; 1 mg/kg i.p. 4 days): —; Blood (WBC) ([3]; 1 mg/kg i.p. 4 days): —; Body weight ([3]; 1 mg/kg i.p. 4 days): —; Change in weight (FIGS. 2a and 2b) ([3]; 1 mg/kg i.p. 4 days): inhibition to an increase in weight; Weight (liver) ([3]; 1 mg/kg i.p. 4 days): ↑; Weight (spleen) ([3]; 1 mg/kg i.p. 4 days): —; Weight (kidney) [3, 10]: ↑; Weight (lung) [3, 10]: ↑; Change in weight (FIGS. 2a and 2b) ([3]; 2 mg/kg i.p. 4 days): reduction in weight; Blood (PLAT) [3, 11]: ↓; Body weight [3, 11]: ↓; Weight (kidney) [3, 11]: ↑; Weight (lung) [3, 11]: ↑; E-select (IC50 of expression) [4]: 1.23 µg/mL; Solubility in ethyl acetate, chloroform and dimethyl sulfoxide [5]: soluble; Solubility in neutral water [5]: insoluble; VCAM-1 (IC50 of expression) [6]: 0.85 µg/mL; Hepatic metastasis incidence ([7]; 0.5 mg/kg i.p. once a day): 5/7; No. of metastatic nodules (mean ± STD) ([7]; 0.5 mg/kg i.p. once a day): (9.7 ± 12.2); No. of metastatic nodules, median ([7]; 0.5 mg/kg i.p. once a day): 1.0; Toxic death ([7]; 0.5 mg/kg i.p. once a day): 1; Hepatic metastasis incidence ([7]; 1.0 mg/kg i.p. once a day): 3/6; No. of metastatic nodules (mean ± STD) ([7]; 1.0 mg/kg i.p. once a day): (1.2 ± 1.6); No. of metastatic nodules, median ([7]; 1.0 mg/kg i.p. once a day): 0.5; Toxic death ([7]; 1.0 mg/kg i.p. once a day): 2; Hepatic metastasis incidence ([7]; 2.0 mg/kg i.p. once a day): 0/5; No. of metastatic nodules (individual animals) ([7]; 2.0 mg/kg i.p. once a day): no metastatic nodules was observed at all; No. of metastatic nodules, median ([7]; 2.0 mg/kg i.p. once a day): 0; Toxic death ([7]; 2.0 mg/kg i.p. once a day): 3; Number of the metastatic nodules ([7]; dose ranging from 0.5 mg/kg): decreased the number of the metastatic nodules; IC50 (growth of endothelial cells, absorbance 50% of no sample) [8]: 0.08 µg/mL; IC50 (number of blood capillaries 50% of that without sample) [9]: 0.050 µg/mL
